By IC50 is commonly meant the concentration that gives 50% inhibition. By half-life is commonly meant how long it takes for the measured level to halve.

The values that follow come from patent publication US20110071174A1, “SUBSTITUTED QUINAZOLINES” (Shire LLC, priority 2008, published 2011).

Data set [1] concerns erythroid or myelomonocytic differentiation. Particulars: stimulated by erythropoietin or granulocyte-macrophage colony-stimulating factor; cited from earlier work.
In data set [2] the test system is TPO-induced megakaryocytopoiesis. Particulars: cited from earlier work.
The conditions of data set [3]: cited from earlier work.
The target of data set [4] is human phosphodiesterase III (PDE III). Particulars: cited from earlier work.
Data set [5] relates to human phosphodiesterase III (PDE III). Briefly: PDE III inhibition. It counts as biochemical. Particulars: more potent than anagrelide. The text has this:
In early volunteer trials, the most frequently reported adverse effects AEs other than headache were palpitations, postural dizziness and nausea. During patient studies, the most frequently reported drug-related AEs were headache, palpitations, oedema/fluid retention, nausea/vomiting, diarrhea, dizziness and abdominal pain. These effects are all likely to arise from the secondary, cardiovascular pharmacology associated with anagrelide resulting from its inhibitory effects on human phosphodiesterase III (PDE III). […] Inhibition of myocardial PDE III leads to positive inotropy (increasing of the force of contractions of the heart), increased chronotropy (increase in heart rate), and peripheral vasodilatation. Such cardiovascular manifestations of this inhibition are typically seen with the classical positive inotropes, milrinone and enoximone, and exploited in the short-term acute treatment of congestive heart failure. However, in the treatment of a so-called silent disease (i.e., asymptomatic) such as ET, the cardiovascular side-effects of palpitations and tachycardia associated with anagrelide limit its utility and a significant proportion of patients—reportedly between 25 and 50%—fail to tolerate the drug during long term treatment.

The nature of data set [6]: Pharmacokinetics and exposure in humans. The class given is in vivo, human. Particulars: typical exposures, greater than anagrelide. The text has this: The PDE III inhibitory properties of anagrelide are quite distinct from its platelet lowering anti-megakaryocytic effects. Indeed studies have shown no correlation between potency as a PDE III inhibitor and anti-megakaryocytic effects for anagrelide and its principal pharmacologically active metabolite, 3-hydroxyanagrelide (3-OH anagrelide or 3-HA, formerly known as SPD604 or BCH24426). […] Anagrelide's active metabolite, 3-HA, is present in vivo in amounts greatly exceeding those of the parent drug with typical exposures being 2-3 fold greater. Thus by implication 3-OH anagrelide is likely to be a major contributor to the pharmacological actions of the drug.
In addition to the unwanted cardiovascular effects associated with PDE III inhibition, the consequent elevation of cAMP can result in an anti-aggregatory effect. While initially this property may appear to be beneficial in essential thrombocythemia patients predisposed to greater thrombotic risk, such anti-platelet effects, in excess, could have haemorrhagic consequences and on balance may not be desirable. […]

With `O=C1CN2Cc3c(ccc(Cl)c3Cl)N=C2N1` [Anagrelide, 6,7-dichloro-1,5-dihydroimidazo[2,1-b]-quinazolin-2(3H)-one], the “effect on erythroid or myelomonocytic differentiation” value in data set [1] is listed as “does not affect”. The IC50 is about 26 nM in data set [2] (estimated, in vitro human megakaryocytopoiesis, read-out: IC50 for inhibition of TPO-induced megakaryocytopoiesis) and about 29 nM in data set [4]. Moreover, the first pass effect in data set [3] (in vivo) is listed as over 50%.

In the case of `Cc1[nH]c(=O)c(C#N)cc1-c1ccncc1` [milrinone], the concentration for half-maximal inhibition (IC50) in data set [4] was 170 to 350 nM.

Take `O=C1NC2=Nc3ccc(Cl)c(Cl)c3CN2C1O` (stereo not drawn) [3-hydroxyanagrelide]: the “potency as PDE III inhibitor relative to anagrelide” value in data set [5] is listed as “over 40 fold”. Also, the “potency in inhibition of megakaryocytopoiesis relative to parent drug” value in data set [2] (compared with anagrelide) is “no more potent than the parent drug”. Further, the “exposure in vivo relative to parent drug” value in data set [6] is 2-3 fold. In addition, the half-life in data set [3] (typical) is 2.5 h.
